Values joined by “and” are separate entries in the source; they are usually repeats but may differ in a detail not shown here. Identical values can stand only once.
System: OPM-2 xenografts
Test: OPM-2 xenograft efficacy (tumor volume, body weight)
Assay type: in vivo, mouse
Details: for Body Weight (g) Day 21, individual animals / Body Weight Day 21, Mean / Body Weight Day 21, Median / Relative to initial body wt., %: mouse, in vivo, iv
Experimental: All animal studies were conducted in accordance with the guidelines approved by the Institutional Animal Care and Use Committees of AbbVie. The research protocol was approved by In Vivo Pharmacology at AbbVie prior to study initiation but was not publicly registered or disclosed. Female C.B-17 SCID-beige mice (AMO-1, OPM-2, NCI-H929, and OCI-AML2 xenografts) and female NSG mice (MV4-11-Red.Fluc systemic) were purchased from Charles River Laboratories (Wilmington, MA). Animals were housed in a light cycle-controlled room with HEPA filtration at 22 °C. Animals had nesting and climbing cage topper as the primary environmental enrichment. Animals were inoculated subcutaneously in the right flank with 5 × 10^6 (AMO-1, OPM-2, NCI-H929, and OCI-AML2) or intravenous (IV) with 5 × 10^6 (MV4-11-Red.Fluc). The inoculation volume (0.2 mL) comprised a 50:50 mixture of cells in growth media and Matrigel (BD Biosciences) for subcutaneous injections and 100% phosphate-buffered saline for IV administration. All cell lines used in this publication were authenticated using IDEXX for STR profiling as well as their IMPACT and human IMPACT panels for pathogen screening. Electronic calipers were used to measure the length and width of each tumor 2 to 3 times per week. Tumor volume was estimated by applying the following equation: volume = length × width^2/2. All groups remained blinded during measurements and dosing; only veterinary staff were aware of group identity. When tumors reached approximately 200 mm^3, mice were randomized by match and distributed into treatment and control groups. All xenograft trials were conducted using 5 to 10 mice per group, and all mice were ear tagged and monitored individually throughout the studies. Any animal with a tumor above 2000 mm^3 or 15% loss in body weight was euthanized and removed from the study. Tumor burden in the systemic MV4-11-Red.Fluc experiment was measured using an IVIS® spectrum from PerkinElmer by taking the total photon flux of the entire dorsal side of an individual mouse. Ten minutes prior to imaging, animals received intraperitoneally 0.2 mL of a 15-mg/mL solution of D-Luciferin (PerkinElmer, Catalog #122799) formulated in 100% phosphate-buffered saline. Animals were anesthetized using 3.5% isoflurane and maintained using 2%. Six days after inoculation, animals were imaged and randomized into vehicle and treatment groups at a total flux of ~1 × 10^8. A background control mouse that was tumor naive but received D-Luciferin was placed in the upper left corner of each image. The total flux from this animal was subtracted from the total flux of each animal present in the image.
For in vivo studies, maximal tumor growth inhibition (TGI) was calculated as the greatest treatment response using the following equation: Maximal TGI = (1 − mean tumor volume of the treated group/mean tumor volume of the vehicle control group) × 100. The tumor growth delay (TGD) percentage was determined as the percentage increase of the median time period for the treatment group to reach an arbitrary tumor volume of 1000 mm^3 relative to the vehicle control group. […] A power analysis was conducted using historical data to determine the number of animals required to yield significance of 0.05 at a 30% difference. There were no animals excluded. Data from experiments in vivo were analyzed using the student’s t-test for TGI values and the Mann–Whitney U test for TGD using Excel and GraphPad Prism. Fisher’s exact test was used to probe significance of differences in response frequency.

[1] = OPM-2 (DSMZ) xenograft, SCID-beige mouse, 25 mg/kg q7dx3 IV, Day 63
[2] = OPM-2 (DSMZ) xenograft, SCID-beige mouse, 25 mg/kg q7dx3 IV, Day 70
[3] = OPM-2 (DSMZ) xenograft, SCID-beige mouse, 25 mg/kg q7dx3 IV, Day 77
[4] = OPM-2 (DSMZ) xenograft, SCID-beige mouse, 25 mg/kg q7dx3 IV, Day 106
[5] = OPM-2 (DSMZ) xenograft, SCID-beige mouse, 25 mg/kg q7dx3 IV, Day 113
[6] = OPM-2 (DSMZ) xenograft, SCID-beige mouse, 25 mg/kg q7dx3 IV, Day 120
[7] = individual animals, 6.25 mg/kg q7dx3 IV, Day 37, OPM-2 (DSMZ) xenograft, SCID-beige mouse, 6.25 mg/kg

For `Cc1c(Cl)c2c(Cl)c(C)c1-c1c(-c3ccc(F)cc3)sc3ncnc(c13)O[C@@H](C(=O)O)Cc1cc(ccc1OCc1ccnc(-c3ccc(OC[C@H]4COCCO4)cc3)n1)OC[C@@H](CN1CCN(C)CC1)O2` [Compound A-1747745], the “Body Weight Day 21, % T/C (mean)” value (OPM-2 (DSMZ) xenograft, SCID-beige mice, 25 mg/kg q7dx3 IV, Day 21, mean(T)/mean(C)) was 105.36%, the “Body Weight Day 21, % T/C (median)” value (OPM-2 (DSMZ) xenograft, SCID-beige mice, 25 mg/kg q7dx3 IV, Day 21, median(T)/median(C)) was 105.36% and the “Tumor Volume (mm³) Day 63 (individual animals)” value [1] was 4 mm³. The “Tumor Volume Day 63, Mean” value [1] was 4.00 mm³, the “Tumor Volume Day 63, Median” value [1] was 4.00 mm³ and the “Tumor Volume (mm³) Day 70 (individual animals)” value [2] was 4 mm³. The “Tumor Volume Day 70, Mean” value [2] was 4.00 mm³, the “Tumor Volume Day 70, Median” value [2] was 4.00 mm³ and the “Tumor Volume (mm³) Day 77 (individual animals)” value [3] was 4 mm³. The “Tumor Volume Day 77, Mean” value [3] was 4.00 mm³, the “Tumor Volume Day 77, Median” value [3] was 4.00 mm³ and the “Tumor Volume (mm³) Day 106 (individual animals)” value [4] was 4 mm³. The “Tumor Volume Day 106, Mean” value [4] was 4.00 mm³, the “Tumor Volume Day 106, Median” value [4] was 4.00 mm³ and the “Tumor Volume (mm³) Day 113 (individual animals)” value [5] was 4 mm³. For the same compound, the “Tumor Volume Day 113, Mean” value [5] was 4.00 mm³, the “Tumor Volume Day 113, Median” value [5] was 4.00 mm³ and the “Tumor Volume (mm³) Day 120 (individual animals)” value [6] was 4 mm³. The “Tumor Volume Day 120, Mean” value [6] was 4.00 mm³, the “Tumor Volume Day 120, Median” value [6] was 4.00 mm³ and the “Tumor Volume Day 37, Mean” value (group mean, 6.25 mg/kg q7dx3 IV, Day 37, OPM-2 (DSMZ) xenograft, SCID-beige mouse) was 1067.37 mm³. The “Tumor Volume Day 37, Mean” value (group mean, 25 mg/kg q7dx3 IV, Day 37, OPM-2 (DSMZ) xenograft, SCID-beige mouse) was 4.00 mm³, the “Tumor Volume Day 41, Mean” value (group mean, 25 mg/kg q7dx3 IV, Day 41, SCID-beige mice) was 4.00 mm³ and the “Tumor Volume Day 44, Mean” value (group mean, 25 mg/kg q7dx3 IV, Day 44, SCID-beige mice) was 4.00 mm³. For the same compound, the “Tumor Volume (mm³) Day 86, Mean” value (group mean, 25 mg/kg q7dx3 IV, OPM-2 (DSMZ) xenograft, SCID-beige mice, Day 86) was 4.00 mm³, the “Tumor Volume (mm³) Day 93, Mean” value (group mean, 25 mg/kg q7dx3 IV, OPM-2 (DSMZ) xenograft, SCID-beige mice, Day 93) was 4.00 mm³ and the “Tumor Volume (mm³) Day 101, Mean” value (group mean, 25 mg/kg q7dx3 IV, OPM-2 (DSMZ) xenograft, SCID-beige mice, Day 101) was 4.00 mm³. For the same compound, the “Tumor Volume (mm³) Day 51, Mean” value (group mean, 25 mg/kg q7dx3 IV, OPM-2 (DSMZ) xenograft, SCID-beige mouse, Day 51) was 4.00 mm³, the “Tumor Volume (mm³) Day 57, Mean” value (group mean, 25 mg/kg q7dx3 IV, OPM-2 (DSMZ) xenograft, SCID-beige mouse, Day 57) was 4.00 mm³ and the “Tumor Volume Day 37, Median” value (group median, 6.25 mg/kg q7dx3 IV, Day 37, OPM-2 (DSMZ) xenograft, SCID-beige mouse) was 1120.03 mm³. For the same compound, the “Tumor Volume Day 37, Median” value (group median, 25 mg/kg q7dx3 IV, Day 37, OPM-2 (DSMZ) xenograft, SCID-beige mouse) was 4.00 mm³, the “Tumor Volume Day 41, Median” value (group median, 25 mg/kg q7dx3 IV, Day 41, SCID-beige mice) was 4.00 mm³ and the “Tumor Volume Day 44, Median” value (group median, 25 mg/kg q7dx3 IV, Day 44, SCID-beige mice) was 4.00 mm³. For the same compound, the “Tumor Volume (mm³) Day 86, Median” value (group median, 25 mg/kg q7dx3 IV, OPM-2 (DSMZ) xenograft, SCID-beige mice, Day 86) was 4.00 mm³, the “Tumor Volume (mm³) Day 93, Median” value (group median, 25 mg/kg q7dx3 IV, OPM-2 (DSMZ) xenograft, SCID-beige mice, Day 93) was 4.00 mm³ and the “Tumor Volume (mm³) Day 101, Median” value (group median, 25 mg/kg q7dx3 IV, OPM-2 (DSMZ) xenograft, SCID-beige mice, Day 101) was 4.00 mm³. For the same compound, the “Tumor Volume (mm³) Day 51, Median” value (group median, 25 mg/kg q7dx3 IV, OPM-2 (DSMZ) xenograft, SCID-beige mouse, Day 51) was 4.00 mm³, the “Tumor Volume (mm³) Day 57, Median” value (group median, 25 mg/kg q7dx3 IV, OPM-2 (DSMZ) xenograft, SCID-beige mouse, Day 57) was 4.00 mm³ and the “Mortality Observation Day 37” value [7] was “GRPX and EUTV (3×)”. For the same compound, the “Tumor Volume (mm³) Day 37” value [7] was 830 mm³ and 1099 mm³ and 1199 mm³ and 1141 mm³, the “Tumor Volume (mm³) Day 37” value (individual animals, 25 mg/kg q7dx3 IV, Day 37, OPM-2 (DSMZ) xenograft, SCID-beige mouse) was 4 mm³ and the “Tumor Volume (mm³) Day 41” value (individual animals, 25 mg/kg q7dx3 IV, Day 41, SCID-beige mice) was 4 mm³. The “Tumor Volume (mm³) Day 44” value (individual animals, 25 mg/kg q7dx3 IV, Day 44, SCID-beige mice) was 4 mm³, the “Tumor Volume (mm³) Day 86” value (individual animals, 25 mg/kg q7dx3 IV, OPM-2 (DSMZ) xenograft, SCID-beige mice, Day 86) was 4 mm³ and the “Tumor Volume (mm³) Day 93” value (individual animals, 25 mg/kg q7dx3 IV, OPM-2 (DSMZ) xenograft, SCID-beige mice, Day 93) was 4 mm³. The “Tumor Volume (mm³) Day 101” value (individual animals, 25 mg/kg q7dx3 IV, OPM-2 (DSMZ) xenograft, SCID-beige mice, Day 101) was 4 mm³, the “Tumor Volume (mm³) Day 51” value (individual animals, 25 mg/kg q7dx3 IV, OPM-2 (DSMZ) xenograft, SCID-beige mouse, Day 51) was 4 mm³ and the “Tumor Volume (mm³) Day 57” value (individual animals, 25 mg/kg q7dx3 IV, OPM-2 (DSMZ) xenograft, SCID-beige mouse, Day 57) was 4 mm³. The “Body Weight (g) Day 21, individual animals” value (6.25 mg/kg) was 21 g, the “Body Weight Day 21, Mean” value (6.25 mg/kg) was 21.00 g and the “Body Weight Day 21, Median” value (6.25 mg/kg) was 21.00 g. The “Relative to initial body wt., %” value (6.25 mg/kg) was 0.00%, the “Body Weight (g) Day 21, individual animals” value (25 mg/kg) was 22 g and the “Body Weight Day 21, Mean” value (25 mg/kg) was 22.13 g. The “Body Weight Day 21, Median” value (25 mg/kg) was 22.13 g and the “Relative to initial body wt., %” value (25 mg/kg) was 0.00%.
